The IC50 is the midpoint of a concentration-inhibition curve. A lower IC50 goes with higher potency.

The source of these data is publication PMC7462607 (eLife, 2020).

In assay [1] the target is T1, CDK12/CCNK with DDB1-CUL4-RBX1 (Homo sapiens, UniProt Q9NYV4).
T1 construct: made in house; host or cells: 293F cells (CDK12/CCNK, UBA1, UBE2G1, UBE2D3, CUL4A/RBX1); Sf9 (His-DDB1); E. coli BL21(DE3) (His-ubiquitin)
In words: In vitro ubiquitination of CCNK. The class given is biochemical. Conditions: E1, E2, E3 and HQ461 present. The method, then: Human Ubiquitin ORF was cloned into pET28a vector with an N-terminal 6xHis tag. The resulting pET28a-6xHis-Ub plasmid was transformed into the E. coli strain BL21 (DE3) and grown at 37°C until OD600 reached ~0.8. His-Ub expression was induced overnight by 0.5 mM IPTG at 18°C. Cells were collected by centrifugation at 4000 g and resuspended with lysis buffer containing 50 mM Tris-HCl, pH 7.5, 500 mM NaCl, 20 mM imidazole, 5% glycerol. Cell lysis was performed by French Press. After 20,000 g centrifugation for 1 hr at 4°C, the supernatant was incubated with Ni-NTA resin. After extensive wash with lysis buffer, His-Ub was eluted from Ni-NTA resin with 50 mM Tris-HCl, pH 7.5, 500 mM NaCl, 300 mM imidazole, 5% glycerol. Fractions containing His-Ub were pooled and concentrated, followed by gel filtration on a Superdex 200 10/300 GL column (GE Healthcare, Chicago, USA) in gel filtration buffer (50 mM Tris-HCl, pH7.5, 10 mM NaCl, 1 mM DTT). Fractions containing His-Ub were pooled and concentrated by a 3 KDa MWCO Ultra centrifugal filter (Amicon), flash frozen with liquid nitrogen, and stored at −80°C before use.
Human ORFs encoding UBA1 (residues 49–1058, NP_003325.2), UBE2G1 (NP_003333.1), UBE2D3 (NP_003331.1), CUL4A (NP_001008895.1) were cloned into pPB-CAG-1xFLAG vector. ORF encoding human RBX1 (NP_055063.1) was cloned into pPB-CAG vector without a tag. […]

For assay [2], the system named is ARE-luc2P activity (NRF2). In words: ARE-luc2P reporter assay (NRF2 activity). The class given is cell-based. The following applies: Homo sapiens; A549 ARE-luc2P reporter cells. The method, then:
A549 cells were transiently transfected with the plasmid pGL4.37 (Promega, Madison, USA) and selected with 500 µg/ml of hygromycin to obtain a stable cell line harboring the ARE-luc2P reporter. TK-luc2P was cloned into the pLVX-IRE-Puro backbone by replacing its CMV promoter and multiple cloning site with HSV-TK promoter fused to luc2P. The resulting pLVX-TK-luc2P-IRES-Puro plasmid was packaged into lentivirus to transduce A549 cells. Stable cell lines were obtained by selection of transduced cells with 2 µg/ml of puromycin.
A screening library with 65,790 small molecules (Life Chemicals, Niagara-on-the-Lake, Canada) were used in primary screening. The screening procedures were as follows. Seven hundred A549 ARE-luc2P cells in 50 µL of medium were plated per well in 384-well flat clear bottom white polystyrene TC-treated microplates (Corning, Corning, USA) and allowed to attach to plates overnight. […] Twelve hours later, ARE-luc2P activities were measured with Bright-Glo luciferase assay system (Promega, Madison, USA) following vendor instructions. Luminescence was measured on a EnVision multimode plate reader (PerkinElmer, Waltham, USA). Luminescence data on each plate was Z-score normalized using the equation Z=x−μ/σ , where x is the luminescence value of a well, µ is the mean and σ is the standard deviation of all values on one plate. […]
On the technique in general: A reporter such as luciferase makes a cellular process visible.

T1 sequence (Q9NYV4 1-1481 isoform Q9NYV4-2): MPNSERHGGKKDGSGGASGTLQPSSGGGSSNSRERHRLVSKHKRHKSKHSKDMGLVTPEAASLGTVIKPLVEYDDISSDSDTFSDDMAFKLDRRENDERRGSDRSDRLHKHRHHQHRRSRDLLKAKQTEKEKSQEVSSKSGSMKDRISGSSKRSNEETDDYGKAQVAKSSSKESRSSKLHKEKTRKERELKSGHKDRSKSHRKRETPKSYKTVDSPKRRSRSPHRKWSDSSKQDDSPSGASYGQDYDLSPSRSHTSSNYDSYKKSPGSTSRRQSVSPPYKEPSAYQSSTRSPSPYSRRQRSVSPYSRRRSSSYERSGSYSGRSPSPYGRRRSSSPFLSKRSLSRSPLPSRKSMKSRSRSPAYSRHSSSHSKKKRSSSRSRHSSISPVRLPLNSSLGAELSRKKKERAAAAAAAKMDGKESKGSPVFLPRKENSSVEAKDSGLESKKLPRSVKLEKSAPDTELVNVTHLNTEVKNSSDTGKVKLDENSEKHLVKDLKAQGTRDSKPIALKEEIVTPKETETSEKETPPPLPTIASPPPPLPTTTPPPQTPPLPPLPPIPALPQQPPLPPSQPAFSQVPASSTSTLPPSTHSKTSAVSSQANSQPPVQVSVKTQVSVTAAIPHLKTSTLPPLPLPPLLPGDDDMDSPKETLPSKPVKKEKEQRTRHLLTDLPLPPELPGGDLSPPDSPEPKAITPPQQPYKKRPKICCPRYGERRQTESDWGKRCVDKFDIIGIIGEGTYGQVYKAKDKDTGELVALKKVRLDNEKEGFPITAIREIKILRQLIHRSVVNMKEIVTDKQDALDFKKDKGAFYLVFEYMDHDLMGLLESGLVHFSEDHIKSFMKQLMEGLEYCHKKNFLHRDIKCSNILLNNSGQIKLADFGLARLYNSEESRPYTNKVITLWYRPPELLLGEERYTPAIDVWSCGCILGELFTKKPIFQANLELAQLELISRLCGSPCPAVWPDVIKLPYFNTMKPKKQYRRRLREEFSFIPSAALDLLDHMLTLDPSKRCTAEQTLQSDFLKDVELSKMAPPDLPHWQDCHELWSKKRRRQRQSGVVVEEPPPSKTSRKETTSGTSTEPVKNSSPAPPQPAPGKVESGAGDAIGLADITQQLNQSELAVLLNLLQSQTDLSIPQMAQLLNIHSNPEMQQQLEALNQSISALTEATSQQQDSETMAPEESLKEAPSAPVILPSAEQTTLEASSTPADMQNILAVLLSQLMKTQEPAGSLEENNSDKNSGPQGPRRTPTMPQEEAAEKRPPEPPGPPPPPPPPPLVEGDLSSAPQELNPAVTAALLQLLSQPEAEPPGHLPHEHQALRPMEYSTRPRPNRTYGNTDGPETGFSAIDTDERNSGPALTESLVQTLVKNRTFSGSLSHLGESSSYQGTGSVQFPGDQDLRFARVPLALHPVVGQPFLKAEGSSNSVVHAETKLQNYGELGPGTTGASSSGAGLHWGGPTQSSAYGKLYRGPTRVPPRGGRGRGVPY
T1 sequence (O75909 whole entry partner): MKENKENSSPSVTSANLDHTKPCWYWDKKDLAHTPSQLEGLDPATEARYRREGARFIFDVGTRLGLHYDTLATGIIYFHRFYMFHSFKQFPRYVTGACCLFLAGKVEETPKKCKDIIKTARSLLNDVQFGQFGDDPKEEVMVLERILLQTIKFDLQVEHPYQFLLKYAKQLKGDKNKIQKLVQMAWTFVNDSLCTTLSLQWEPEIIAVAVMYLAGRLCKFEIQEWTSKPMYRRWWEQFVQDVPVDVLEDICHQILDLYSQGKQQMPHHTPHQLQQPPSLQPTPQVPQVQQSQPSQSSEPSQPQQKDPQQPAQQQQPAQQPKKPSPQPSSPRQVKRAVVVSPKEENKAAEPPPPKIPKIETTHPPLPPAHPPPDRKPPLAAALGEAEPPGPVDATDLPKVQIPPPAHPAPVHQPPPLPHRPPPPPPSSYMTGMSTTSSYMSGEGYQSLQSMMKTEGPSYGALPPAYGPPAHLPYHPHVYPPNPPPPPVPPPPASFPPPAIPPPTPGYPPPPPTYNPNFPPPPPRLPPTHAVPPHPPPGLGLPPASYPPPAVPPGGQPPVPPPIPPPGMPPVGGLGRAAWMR
T1 sequence (Q16531 whole entry partner): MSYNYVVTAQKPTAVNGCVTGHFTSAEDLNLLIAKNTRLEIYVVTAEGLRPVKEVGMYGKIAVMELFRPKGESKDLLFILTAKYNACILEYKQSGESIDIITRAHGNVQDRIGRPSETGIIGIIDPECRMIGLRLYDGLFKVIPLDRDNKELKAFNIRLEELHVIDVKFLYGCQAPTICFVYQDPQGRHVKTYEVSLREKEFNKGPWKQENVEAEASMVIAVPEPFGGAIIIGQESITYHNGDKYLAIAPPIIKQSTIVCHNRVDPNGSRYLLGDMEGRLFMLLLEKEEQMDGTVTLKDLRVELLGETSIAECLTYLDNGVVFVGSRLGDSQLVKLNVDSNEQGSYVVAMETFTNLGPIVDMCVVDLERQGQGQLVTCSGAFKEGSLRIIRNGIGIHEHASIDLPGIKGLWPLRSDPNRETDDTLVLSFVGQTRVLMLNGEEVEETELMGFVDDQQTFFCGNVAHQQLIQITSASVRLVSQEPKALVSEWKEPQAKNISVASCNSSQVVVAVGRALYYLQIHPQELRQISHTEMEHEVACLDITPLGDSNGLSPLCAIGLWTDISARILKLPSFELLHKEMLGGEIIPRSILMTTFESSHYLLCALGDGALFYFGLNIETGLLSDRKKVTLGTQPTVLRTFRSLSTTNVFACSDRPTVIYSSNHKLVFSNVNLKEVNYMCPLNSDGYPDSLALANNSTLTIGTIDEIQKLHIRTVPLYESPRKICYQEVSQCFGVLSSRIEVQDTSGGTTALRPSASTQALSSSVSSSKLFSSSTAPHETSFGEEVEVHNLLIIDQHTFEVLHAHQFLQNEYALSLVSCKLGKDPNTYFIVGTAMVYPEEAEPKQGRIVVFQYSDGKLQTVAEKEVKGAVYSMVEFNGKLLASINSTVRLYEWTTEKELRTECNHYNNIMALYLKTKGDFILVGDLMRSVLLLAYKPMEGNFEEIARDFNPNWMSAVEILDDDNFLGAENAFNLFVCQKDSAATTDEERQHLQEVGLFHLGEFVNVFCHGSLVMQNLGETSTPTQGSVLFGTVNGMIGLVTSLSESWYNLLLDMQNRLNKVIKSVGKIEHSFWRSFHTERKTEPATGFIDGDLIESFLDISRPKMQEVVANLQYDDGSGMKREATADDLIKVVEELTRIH
T1 sequence (Q13619 whole entry partner): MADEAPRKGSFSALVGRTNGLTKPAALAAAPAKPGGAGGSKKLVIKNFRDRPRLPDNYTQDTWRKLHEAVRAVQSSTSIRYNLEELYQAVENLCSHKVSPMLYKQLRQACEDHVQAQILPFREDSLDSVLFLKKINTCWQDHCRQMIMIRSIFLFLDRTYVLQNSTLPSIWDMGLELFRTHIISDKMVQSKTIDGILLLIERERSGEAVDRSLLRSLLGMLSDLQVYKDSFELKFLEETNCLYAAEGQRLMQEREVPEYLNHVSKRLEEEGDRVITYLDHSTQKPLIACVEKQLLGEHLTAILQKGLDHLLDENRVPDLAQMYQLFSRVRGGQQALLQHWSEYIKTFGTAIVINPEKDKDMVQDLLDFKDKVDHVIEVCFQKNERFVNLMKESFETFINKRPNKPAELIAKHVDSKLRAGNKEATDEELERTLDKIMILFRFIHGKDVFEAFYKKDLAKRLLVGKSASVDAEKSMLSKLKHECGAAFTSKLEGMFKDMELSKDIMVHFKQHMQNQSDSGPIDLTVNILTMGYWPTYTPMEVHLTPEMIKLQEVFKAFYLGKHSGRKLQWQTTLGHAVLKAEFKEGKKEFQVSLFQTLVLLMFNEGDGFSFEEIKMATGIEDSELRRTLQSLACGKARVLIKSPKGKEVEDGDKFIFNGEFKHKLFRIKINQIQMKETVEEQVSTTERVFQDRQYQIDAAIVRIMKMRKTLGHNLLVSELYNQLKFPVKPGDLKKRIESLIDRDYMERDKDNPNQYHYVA
T1 sequence (P62877 whole entry partner): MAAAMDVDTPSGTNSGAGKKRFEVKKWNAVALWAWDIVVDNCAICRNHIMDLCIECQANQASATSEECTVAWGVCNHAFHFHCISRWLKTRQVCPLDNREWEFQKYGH

For the molecule `Cc1cccc(Nc2nc(CC(=O)Nc3ncc(C)s3)cs2)n1` [HQ461, 2-(2-((6-methylpyridin-2-yl)amino)thiazol-4-yl)-N-(5-methylthiazol-2-yl)acetamide], in assay [1], the in vitro polyubiquitination result was “polyubiquitination of CCNK but not CDK12”. In assay [2], this molecule yielded a 50% inhibitory concentration (IC50) of 3.6 µM.
